Results taken from PubChem BioAssay AID1963830 (Molecular Pharmacology Branch, DTP, NCI, 2024).

Test system: 922993-354-T-J3-PDC complex spheroid viability
Assay: Anticancer human tumor 922993-354-T-J3-PDC patient-derived endometrial carcinoma cell line growth inhibition [POLQ]
Details: for IC50: curve of first compound; for viability, T/C: stronger effect = lower value
How it was run: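 Three-cell-type spheroids modelling solid tumor plus stroma served as the readout system; POL inhibitors were tested individually and in combination, concentration ranges set by clinical Cmax where known.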

[1] = second compound 0.0316 µM, first compound 0.0316 µM
[2] = second compound 0.0316 µM, first compound 0.1 µM
[3] = second compound 0.0316 µM, first compound 0.316 µM
[4] = second compound 0.0316 µM, first compound 1 µM
[5] = second compound 0.0316 µM, first compound 3.16 µM
[6] = second compound 0.0316 µM, first compound 10 µM
[7] = second compound 0.1 µM, first compound 0.0316 µM
[8] = second compound 0.1 µM, first compound 0.1 µM
[9] = second compound 0.1 µM, first compound 0.316 µM
[10] = second compound 0.1 µM, first compound 1 µM
[11] = second compound 0.1 µM, first compound 3.16 µM
[12] = second compound 0.1 µM, first compound 10 µM
[13] = second compound 0.316 µM, first compound 0.0316 µM
[14] = second compound 0.316 µM, first compound 0.1 µM
[15] = second compound 0.316 µM, first compound 0.316 µM
[16] = second compound 0.316 µM, first compound 1 µM
[17] = second compound 0.316 µM, first compound 3.16 µM
[18] = second compound 0.316 µM, first compound 10 µM
[19] = second compound 1 µM, first compound 0.0316 µM
[20] = second compound 1 µM, first compound 0.1 µM
[21] = second compound 1 µM, first compound 0.316 µM
[22] = second compound 1 µM, first compound 1 µM
[23] = second compound 1 µM, first compound 3.16 µM
[24] = second compound 1 µM, first compound 10 µM
[25] = second compound 3.16 µM, first compound 0.0316 µM
[26] = second compound 3.16 µM, first compound 0.1 µM
[27] = second compound 3.16 µM, first compound 0.316 µM
[28] = second compound 3.16 µM, first compound 1 µM
[29] = second compound 3.16 µM, first compound 3.16 µM
[30] = second compound 3.16 µM, first compound 10 µM
[31] = second compound 10 µM, first compound 0.0316 µM
[32] = second compound 10 µM, first compound 0.1 µM
[33] = second compound 10 µM, first compound 0.316 µM
[34] = second compound 10 µM, first compound 1 µM
[35] = second compound 10 µM, first compound 3.16 µM
[36] = second compound 10 µM, first compound 10 µM
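Note: spheroids exposed to the agents for one week.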
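Throughout, for viability, T/C: 100% = DMSO vehicle control wells.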

Work on O=C(c1cc(Cc2n[nH]c(=O)c3ccccc23)ccc1F)N1CCN(C(=O)C2CC2)CC1 + COC1C(OC(N)=O)C(O)C(Oc2ccc3c(O)c(NC(=O)c4ccc(O)c(CC=C(C)C)c4)c(=O)oc3c2C)OC1(C)C yielded an IC50 (second compound 0.0316 µM) greater than 10 µM, an IC50 (second compound 0.1 µM) greater than 10 µM and an IC50 (second compound 0.316 µM) greater than 10 µM. For the same compound, the IC50 (second compound 1 µM) was greater than 10 µM, the IC50 (second compound 3.16 µM) was greater than 10 µM and the IC50 (second compound 10 µM) was greater than 10 µM. For the same compound, the viability, T/C [1] was 110%, the viability, T/C [2] was 98% and the viability, T/C [3] was 101%. For the same compound, the viability, T/C [4] was 102%, the viability, T/C [5] was 103% and the viability, T/C [6] was 86.8%. The viability, T/C [7] was 115%, the viability, T/C [8] was 95% and the viability, T/C [9] was 106%. The viability, T/C [10] was 104%, the viability, T/C [11] was 89.8% and the viability, T/C [12] was 98.5%. It also gave a viability, T/C [13] of 94.6%, a viability, T/C [14] of 107% and a viability, T/C [15] of 82.9%. It also gave a viability, T/C [16] of 83.2%, a viability, T/C [17] of 93.5% and a viability, T/C [18] of 97.6%. The viability, T/C [19] was 95.2%, the viability, T/C [20] was 96.7% and the viability, T/C [21] was 86.4%. The viability, T/C [22] was 98%, the viability, T/C [23] was 98.1% and the viability, T/C [24] was 90.2%. For the same compound, the viability, T/C [25] was 90%, the viability, T/C [26] was 95.7% and the viability, T/C [27] was 90.6%. For the same compound, the viability, T/C [28] was 87%, the viability, T/C [29] was 95.7% and the viability, T/C [30] was 85.8%. The viability, T/C [31] was 88.3%, the viability, T/C [32] was 84% and the viability, T/C [33] was 87.8%. For the same compound, the viability, T/C [34] was 68.5%, the viability, T/C [35] was 87.5% and the viability, T/C [36] was 68.5%.

CCc1cc2c(N3CCc4c(cc(Cn5ccnc5)cc4-c4cn(C)nc4C(F)(F)F)C3=O)cc(C)nc2c(OC)n1 + COC1C(OC(N)=O)C(O)C(Oc2ccc3c(O)c(NC(=O)c4ccc(O)c(CC=C(C)C)c4)c(=O)oc3c2C)OC1(C)C showed an IC50 (second compound 0.0316 µM) greater than 10 µM, an IC50 (second compound 0.1 µM) greater than 10 µM and an IC50 (second compound 0.316 µM) greater than 10 µM. It also gave an IC50 (second compound 1 µM) greater than 10 µM, an IC50 (second compound 3.16 µM) greater than 10 µM and an IC50 (second compound 10 µM) greater than 10 µM. The viability, T/C [1] was 113%, the viability, T/C [2] was 98.7% and the viability, T/C [3] was 99.7%. The viability, T/C [4] was 107%, the viability, T/C [5] was 99.8% and the viability, T/C [6] was 80.5%. For the same compound, the viability, T/C [7] was 111%, the viability, T/C [8] was 94.3% and the viability, T/C [9] was 108%. It also gave a viability, T/C [10] of 98.1%, a viability, T/C [11] of 104% and a viability, T/C [12] of 88.9%. The viability, T/C [13] was 103%, the viability, T/C [14] was 103% and the viability, T/C [15] was 93.7%. The viability, T/C [16] was 108%, the viability, T/C [17] was 94.1% and the viability, T/C [18] was 88.1%. The viability, T/C [19] was 108%, the viability, T/C [20] was 111% and the viability, T/C [21] was 103%. For the same compound, the viability, T/C [22] was 99.2%, the viability, T/C [23] was 90.2% and the viability, T/C [24] was 82.4%. It also gave a viability, T/C [25] of 95.9%, a viability, T/C [26] of 106% and a viability, T/C [27] of 108%. The viability, T/C [28] was 95%, the viability, T/C [29] was 86.2% and the viability, T/C [30] was 80.6%. It also gave a viability, T/C [31] of 92.8%, a viability, T/C [32] of 89.1% and a viability, T/C [33] of 87.5%. The viability, T/C [34] was 92.9%, the viability, T/C [35] was 92.4% and the viability, T/C [36] was 74.3%.

Work on Nc1ccn(C2OC(CO)C(O)C2(F)F)c(=O)n1 (stereo unspecified) + COC1C(OC(N)=O)C(O)C(Oc2ccc3c(O)c(NC(=O)c4ccc(O)c(CC=C(C)C)c4)c(=O)oc3c2C)OC1(C)C yielded an IC50 (second compound 0.0316 µM) of less than 0.0316 µM, an IC50 (second compound 0.1 µM) of less than 0.0316 µM and an IC50 (second compound 0.316 µM) of less than 0.0316 µM. It also gave an IC50 (second compound 1 µM) of less than 0.0316 µM, an IC50 (second compound 3.16 µM) of less than 0.0316 µM and an IC50 (second compound 10 µM) of less than 0.0316 µM. The viability, T/C [1] was 10.3%, the viability, T/C [2] was 10.7% and the viability, T/C [3] was 10.7%. The viability, T/C [4] was 10.6%, the viability, T/C [5] was 8.5% and the viability, T/C [6] was 8.9%. The viability, T/C [7] was 12.4%, the viability, T/C [8] was 12.8% and the viability, T/C [9] was 10.4%. The viability, T/C [10] was 9.28%, the viability, T/C [11] was 9% and the viability, T/C [12] was 8.97%. It also gave a viability, T/C [13] of 11.4%, a viability, T/C [14] of 11.6% and a viability, T/C [15] of 11.5%. For the same compound, the viability, T/C [16] was 8.83%, the viability, T/C [17] was 10.4% and the viability, T/C [18] was 9.46%. The viability, T/C [19] was 11.9%, the viability, T/C [20] was 8.68% and the viability, T/C [21] was 9.63%. It also gave a viability, T/C [22] of 10.4%, a viability, T/C [23] of 7.97% and a viability, T/C [24] of 9.31%. For the same compound, the viability, T/C [25] was 12.1%, the viability, T/C [26] was 8.92% and the viability, T/C [27] was 10.3%. For the same compound, the viability, T/C [28] was 10.4%, the viability, T/C [29] was 12.1% and the viability, T/C [30] was 8.3%. It also gave a viability, T/C [31] of 8.46%, a viability, T/C [32] of 10.1% and a viability, T/C [33] of 9.42%. For the same compound, the viability, T/C [34] was 8.26%, the viability, T/C [35] was 8.87% and the viability, T/C [36] was 8.43%.
